Results on 13 compounds are retold here after ChEMBL document CHEMBL3627713, “Triazole linked mono carbonyl curcumin-isatin bifunctional hybrids as novel anti tubulin agents: Design, synthesis, biological evaluation and molecular modeling studies” (Bioorg Med Chem, 2015).

Common to all, as to assay type: functional
The test system of experiment [1] is PC-3. Put plainly: Cytotoxicity against human PC3 cells assessed as growth inhibition at 50 uM after 48 hrs by sulforhodamine B assay relative to control. The settings on record: PC-3, 48 h, read-out: GI.
Experiment [2] concerns HCT-116. Put plainly: Cytotoxicity against human HCT116 cells assessed as growth inhibition at 50 uM after 48 hrs by sulforhodamine B assay relative to control. To be noted: HCT-116, 48 h, read-out: GI. A general note: The SRB assay estimates cell density from bound dye.
Experiment [3] deals with THP-1. Briefly: Cytotoxicity against human THP1 cells assessed as growth inhibition at 50 uM after 48 hrs by sulforhodamine B assay relative to control. To be noted: THP-1, 48 h, read-out: GI.
Experiment [4] relates to COLO 205. Put plainly: Cytotoxicity against human COLO205 cells assessed as growth inhibition at 50 uM after 48 hrs by sulforhodamine B assay relative to control. To be noted: COLO 205, 48 h, read-out: GI.

Turning to `COc1cc(/C=C/C(=O)/C=C/c2cccc(Br)c2)ccc1OCc1cn(CCN2C(=O)C(=O)c3cc(Cl)ccc32)nn1`, the inhibition of growth at 50 µM is 14% in experiment [1], 19% in experiment [2], 12% in experiment [3] and 10% in experiment [4].

Consider `COc1cc(/C=C/C(=O)/C=C/c2ccco2)ccc1OCc1cn(CCN2C(=O)C(=O)c3cc(Br)ccc32)nn1`, for which the inhibition of growth at 50 µM was 31% in experiment [1], 39% in experiment [2], 37% in experiment [3] and 33% in experiment [4].

Turning to `COc1cc(/C=C/C(=O)/C=C/c2ccc([N+](=O)[O-])cc2)ccc1OCc1cn(CCN2C(=O)C(=O)c3cc(Cl)ccc32)nn1`, the inhibition of growth at 50 µM was 10% in experiment [1] and 11% in experiment [2].

In the case of `COc1cc(/C=C/C(=O)/C=C/c2cccc(Br)c2)ccc1OCc1cn(CCN2C(=O)C(=O)c3cc(Br)ccc32)nn1`, the inhibition of growth at 50 µM in experiment [1] was 13%; in experiment [2], 13%; in experiment [3] it was 12%; in experiment [4], 11%.

In the case of `COc1cccc(/C=C/C(=O)/C=C/c2ccc(OCc3cn(CCN4C(=O)C(=O)c5cc(Br)ccc54)nn3)c(OC)c2)c1`, the inhibition of growth at 50 µM in experiment [1] was found to be 51%; in experiment [2] it was 57%; in experiment [3], 54%; in experiment [4], 56%.

Regarding `COc1cc(/C=C/C(=O)/C=C/c2ccco2)ccc1OCc1cn(CCN2C(=O)C(=O)c3cc(Cl)ccc32)nn1`, the inhibition of growth at 50 µM turned out to be 40% in experiment [1], 47% in experiment [2], 41% in experiment [3] and 39% in experiment [4].

Consider `COc1cc(/C=C/C(=O)/C=C/c2cccc3ccccc23)ccc1OCc1cn(CCN2C(=O)C(=O)c3cc(Br)ccc32)nn1`, for which the inhibition of growth at 50 µM was found to be 37% in experiment [1], 44% in experiment [2], 40% in experiment [3] and 40% in experiment [4].

For the compound `COc1cc(/C=C/C(=O)/C=C/c2ccc(Br)cc2)ccc1OCc1cn(CCN2C(=O)C(=O)c3cc(Br)ccc32)nn1`, the inhibition of growth at 50 µM is 17% in experiment [1], 20% in experiment [2], 21% in experiment [3] and 19% in experiment [4].

In the case of `COc1cc(/C=C/C(=O)/C=C/c2ccc(Cl)cc2)ccc1OCc1cn(CCN2C(=O)C(=O)c3cc(Br)ccc32)nn1`, the inhibition of growth at 50 µM was determined as 23% in experiment [1], 29% in experiment [2], 25% in experiment [3] and 24% in experiment [4].

Regarding `COc1cc(/C=C/C(=O)/C=C/c2ccc(Cl)cc2)ccc1OCc1cn(CCN2C(=O)C(=O)c3ccccc32)nn1`, the inhibition of growth at 50 µM came to 45% in experiment [1], 51% in experiment [2], 49% in experiment [3] and 50% in experiment [4].

In the case of `COc1cc(/C=C/C(=O)/C=C/c2ccc([N+](=O)[O-])cc2)ccc1OCc1cn(CCN2C(=O)C(=O)c3cc(Br)ccc32)nn1`, the inhibition of growth at 50 µM in experiment [1], in experiment [2] and in experiment [4] was 10% throughout.

Consider `COc1cc(/C=C/C(=O)/C=C/c2ccc(Cl)cc2)ccc1OCc1cn(CCN2C(=O)C(=O)c3cc(Cl)ccc32)nn1`, for which the inhibition of growth at 50 µM in experiment [1] was 25%; in experiment [2], 36%; in experiment [3], 30%; in experiment [4], 29%.

For the compound `COc1cc(/C=C/C(=O)/C=C/c2cccs2)ccc1OCc1cn(CCN2C(=O)C(=O)c3cc(Cl)ccc32)nn1`, the inhibition of growth at 50 µM in experiment [1] turned out to be 37%; in experiment [2], 44%; in experiment [3], 38%; in experiment [4], 35%.
